Source: patent publication US20210244712A1, “METHODS FOR TREATING PATIENTS WITH CANCER HAVING DEFECTS IN CYCLIN D REGULATION” (NysnoBio Ireland DAC, priority 2018, published 2021)

How the values were obtained:
[1] = test system: cyclin D1; test: Western blot of Cyclin D1, Example 6B; type: cell-based; conditions: 250 nM, 24 h, compared to control (DMSO)
Protocol: Cells were plated at a density of 3×10^5 cells/well for 24 hrs. Representative compounds or DMSO alone was then added to the wells for 24 h at 250 nM (note: Compound F was administered at a concentration of 2 μM). Cells were trypsinised, pelleted, washed ×3 in PBS, and lysed using a 2% SDS lysis solution (Sigma—05030).
Western blot analysis was then carried out to look at Cyclin D1 (Abeam—ab134175), PRK8 (Sigma—P6248), Rb (Abeam—[…]) and GAPDH (Sigma—G9545) levels.

[2] = test system: cyclin D1; test: Western blot of Cyclin D1 in Mino cells, Example 6C; type: cell-based; conditions: compared to control (DMSO)
Protocol: Mino cells have a chromosomal translocation of the Cyclin D gene that increases expression of cyclin D1. Western blot analysis was then carried out to look at Cyclin D1 (Abeam—ab134175) and GAPDH (Sigma—G9545) levels after treatment with Compounds F, S3, 42, and 146.

[3] = test system: HCT-116 xenograft; test: Subcutaneous HCT-116 xenograft model, tumor volume; type: in vivo, nude mice; conditions: Groups 2-6 of Table 8 (Compound 42 1 and 5, Q3 5 and 15, F 25 mg/kg); IP daily for 20 days; 28 days; vs control
Protocol: The efficacy of Compound 42, Compound F, and Compound Q3 were evaluated in the treatment of subcutaneous HCT-116 xenograft model in nude mice.
Cell Culture: HCT-116 tumor cell lines were maintained in vitro as a monolayer culture in DMEM medium supplemented with 10% fetal bovine serum at 37° C. in an atmosphere of 5% CO2 in air. The tumor cells were routinely subcultured twice weekly by trypsin-EDTA treatment (0.05% Trypsin-EDTA) and 1:4 split: The cells in an exponential growth phase were harvested and counted for tumor inoculation.
Tumor Inoculation: Each, mouse was inoculated subcutaneously at the flank region with HCT-1.16 cells (1.0×106) in 0.1 ml of 1×PBS mixed with Matrigel (1:1) for tumor development. The day Xenotransplantation was performed is denoted as day 0.
Thirty (30) animals with approx 100-150 mm^3 tumors were selected for HCT-116 follow up experiment and randomly placed Into Groups 1, 2, […], 4, 5, and 6 as shown in Table 8.
Group Assignment: Before grouping and treatment, all animals were weighed and fee tumor volumes were confirmed (100-150 mm^3) using electronic caliper. Since the tumor volume can affect fee effectiveness of any given treatment mice into groups using randomized block design as following: First the experimental animals were divided into homogeneous blocks based on their tumor volume. Secondly, within each block, randomization of experimental animals to different groups By using randomized block design to assign experimental animals, we ensure that each animal has the same probability of being assigned to any given treatment groups and therefore systematic error is minimized.
(§1) Treatments were initiated when turner volume reached 100-150 mm^3. Treatments started on Day 5. Test compounds were administered intraperitoneally (II′) in 10 mg/mL solution comprising 10% N,N-dimethyl acetamide, 15% macrogol 15 hydroxy stearate, polyethylene glycol-15-hydroxystearate, and 75% aqueous hydroxypropyl-beta-cyclodextrin.
(§2) Observation and data collection: After tumor cells inoculation, the animals were checked daily for morbidity and mortality. At the time of routine monitoring, the animals were checked for any adverse effects of tumor growth and treatments on normal behavior such as mobility, visual estimation of food and water consumption, body weight gain/loss, eye/hair matting and any other abnormal effects, Death and observed clinical signs were recorded, per […] IACUC. Tumor volumes were measured every 3-4 days in two dimensions using an electronic caliper, sad the volume data are expressed in, mm3 using the formula: V=0.5 a×b^2 where a and b are fee long and short diameters of the tumor, respectively. Dosing and tumor volume measurement procedures were conducted in a Laminar Flow Cabinet according to Altogen Labs IACUC regulations.
Statistics: Summary statistics, the mean and the standard error of the mean (SEM), are provided for the tumor volume of each group at each time point. Statistical analysis of difference in tumor volume among the groups and the analysis of drug interaction were conducted on the data obtained after the final dose.

[4] = HCT-116 xenograft model, body weight and adverse events; type: in vivo; conditions: Groups 2-6 of Table 8; IP daily for 20 days
Protocol: as §1, §2
Body weight loss daring fee study: Sacrifice fee mouse when one measurement of body weight loss (BWL)>20% (only for control animals). Animal research associated wife this study was conducted under Altogen Labs IACUC regulatory space. Altogen Labs IACUC guidelines were followed in case of BWL and any other conditions.

[5] = test system: ubiquitinated proteins; test: Mechanistic study: Ub (FK-2) western blot; type: cell-based; conditions: ES-2; epoxomicin 60 nM; 18 hours
Protocol: In order to establish that the decrease in Cyclin D seen after Compound 42 treatment is due to proteasomal degradation, ES-2, ovarian cancer cell line was treated with Compound 42 (250 nM) in the presence or absence of epoxomicin, a specific inhibitor of the proteasome (60 nM) for 18 hours. Following the treatment, western blotting for Cyclin D (FIG. 10A), Ub (FK-2) (FIG. 10B), and GAPDH control (bottom blot, below FIGS. 10A and 10B) was performed. Epoxomicin is a specific inhibitor of the proteasome.

[6] = test system: HCT-116; test: Senescence quantification (SA-βGal), Example 6A; type: cell-based; conditions: Compound 42 250 nM, Palbociclib 1 μM
Protocol: Day 1: 96 well plate was seeded with 4000 cells/well and incubated for 24 hours at 37° C. […]
Day 6: Senescence cells histochemical Staining Kit (Sigma) was used. The growth medium form the cells were aspirated then washed twice with fresh […]. […] 100 μL filtered Fixation Buffer was added per well and the plate was incubated for 6-7 minutes at room temperature. Then, the cells were rinsed 3 times with PBS. 50 μL of the Staining Mixture was added per well and incubated at 37° C. overnight without CO2 (staining is pH dependent). After staining, the Staining Mixture was removed, PBS and Hoechst dye (1 μg/mL) were added. Ten images were taken with Epifluorescence Microscope using the blue filter and 10 images were taken in the brightfield. The images were used to count the total cell number—the positive blue cells were counted in the bright field. The percentage of cells expressing β-galactosidase was calculated.
Method 1: Mammalian β-Galactosidase Assay Kit (Thermo Scientific) was used. […] The cells were washed once with PBS. 100 μL of the β-Galactosidase Assay Reagent was added to each well and the plate was covered and incubated for 30 minutes at 37° C. without CO2. The absorbance was measured at 405 nm. […]
Method 2: Assay of a portion of the lysate. […] 25 μL of lysate was removed and use it for Protein Quantification (BCA). […]
Senescence was quantified according to Example 4. […]

SMILES	Cyclin D1 expression ([1]; HCT-116)	Cyclin D1 expression ([1]; TOV-112)	cyclin D expression [2]	also measured
Cc1ccccc1C(=O)Nc1nc(-c2ncccc2C)nn1-c1cccc(F)c1 [Compound 146]	reduction of Cyclin D1 expression	reduction of Cyclin D1 expression	appreciably reduce Cyclin D expression	–
Cc1ccccc1C(=O)Nc1nc(NC(=O)c2ccccc2C)n(-c2ccc(Cl)cc2)n1 [Compound Q3]	–	–	–	tumor growth (tumor volume) [3]: reduce the tumor growth; weight loss or adverse events [4]: No weight loss or any adverse events
Cc1ccccc1C(=O)Nc1nc(-c2ncccc2C)nn1-c1ccccc1 [Compound S3]	reduction of Cyclin D1 expression	reduction of Cyclin D1 expression	appreciably reduce Cyclin D expression	–
CC[C@H](C)[C@H](NC(=O)[C@H]([C@@H](C)CC)N(C)C(C)=O)C(=O)N[C@H](C(=O)N[C@@H](CC(C)C)C(=O)[C@@]1(C)CO1)[C@@H](C)O [epoxomicin]	–	–	–	ubiquitinated proteins (FK-2 antibody) [5]: overall increase of ubiquitinated proteins
CC(=O)c1c(C)c2cnc(Nc3ccc(N4CCNCC4)cn3)nc2n(C2CCCC2)c1=O [palbociclib, reference compound]	–	–	–	apoptosis or other cell death [6]: No apoptosis or other cell death was observed
